Here are results for 2 compounds from PMC4068261 (Journal of natural products, 2014).

In experiment [1] the test system is HIV-1. To be noted: previous discovery; cited from earlier work.
The subject of experiment [2] is HIV-1. As to the kind of experiment: microbe, parasite or virus in culture. The class given is cell-based. The following applies: Human immunodeficiency virus 1, HOG.R5, read-out: anti-HIV activity IC50.

As to `C=Cc1c(C)c2cc3nc(c4c5[nH]c(cc6nc(cc1[nH]2)C(C)=C6CC)c(C)c5C(=O)[C@@H]4C(=O)OC)[C@@H](CCC(=O)O)[C@@H]3C` [pheophorbide a], in the experiment with HIV-1 [1], the “anti-HIV activity (in words)” value is “potent anti-HIV agent”.

The IC50 is the concentration that inhibits the measured activity by half. Regarding `COc1cc(O)cc2c1C(=O)C[C@@H](c1ccccc1)O2` [Compound 5, alpinetin], in the experiment on HIV-1 [2], the IC50 came out at 130 µM.
